According to paper PMC10779255, “Novel Hydroxamic Acids Containing Aryl-Substituted 1,2,4- or 1,3,4-Oxadiazole Backbones and an Investigation of Their Antibiotic Potentiation Activity” (International Journal of Molecular Sciences, 2023):
Entries after “also recorded” stand apart in the source; their conditions may differ.

Assays:
[1] = Cytotoxicity assay (Alamar Blue); format: cell-based; conditions: human, HEK293 cells, 72 h exposure, mean ± SD, at least 3 independent experiments
Procedure: (§1) The HEK293 cell line was obtained from the ECACC (European Collection of Authenticated Cell Cultures, cat. 85120602, Salisbury, UK). The cells were grown in monolayer culture in Dulbecco’s Modified Eagle Medium (DMEM) (PanEco, Moscow, Russia) supplemented with 2 mM of L-glutamine, 1% penicillin/streptomycin (Capricorn Scientific, Ebsdorfergrund, Germany), and 10% heat-inactivated fetal bovine serum (HyClone, Cytiva, Pasching, Austria) in a humidified atmosphere of 5% CO2 and at 37 °C (Binder, Tuttlingen, Germany). For analysis, the HEK293 cells were seeded into a 96-well plate (Corning Incorporated, Corning, NY, USA) in 100 μL of complete culture medium at a final concentration of 1 × 10^4 cells/well and cultured for 24 h for proper attachment. Subsequently, the medium was removed, and cells were exposed to the test inhibitor with different concentrations for 72 h in 100 μL of fresh complete culture medium. The sensitivity of the cells to test inhibitor molecules was detected using the vital dye Alamar Blue (Invitrogen, Carlsbad, CA, USA). The Alamar Blue assay was performed according to the procedure described by O’Brien et al.. After incubation with test inhibitor molecules, 10 μL of Alamar Blue reagent was added to each well, cell culture plates were returned to a humidified incubator, and the fluorescence was read after 3 h. The plates were exposed to an excitation wavelength of 545 nm, and the emission at 600 nm was measured with the CLARIOstar Plus (BMG Labtech, Ortenberg, Germany, Software Version 5.70 R2). To determine corresponding 50% cellular cytotoxicity (CC50) values, a four-parameter sigmoidal fit curve model (GraphPad Prism 8 software) was used to measure the data.

E. coli MG1655 = assay: Growth curves of E. coli MG1655 with antibiotics, with or without LpxC inhibitors (antibiotic potentiation); format: cell-based, Escherichia coli; conditions: for Activity: combined action together with the antibiotic, marking used for QSAR; for potentiation of kanamycin (sensitivity of cells): kanamycin 0.62 μM; for potentiation of kanamycin (sensitivity of cells) / potentiation of rifampicin (sensitivity of cells): inhibitor 50 or 100 µM; for potentiation of kanamycin (sensitivity of cells) / potentiating activity with nalidixic acid (growth inhibition) / potentiation of rifampicin (sensitivity of cells): OD600 growth curves; for potentiating activity with nalidixic acid (growth inhibition): nalidixic acid 17.22 μM, inhibitor 50–100 µM; for potentiation of rifampicin (sensitivity of cells): rifampicin 6.08 μM; for bacteriostatic effect in the first 10 h of incubation: with antibiotic, resumption of culture growth observed subsequently; for Activity: key: active (1); inactive (0)
Procedure: (§2) Escherichia coli strain MG1655 and Pseudomonas aeruginosa strain ATCC 27853 were obtained from the American Type Culture Collection (ATCC; Rockville, MD, USA). Subculturing and inoculum preparation were prepared according to the Clinical and Laboratory Standards Institute (CLSI) recommended method, M7-A9 [42], using MHA and MHB.
Growth curves were obtained with a Bioscreen C automated growth analysis system. Cultures of E. coli MG1655 were grown overnight at 37 °C, diluted 1:100 in fresh medium, inoculated into honeycomb wells in triplicate, and grown at 37 °C with maximum shaking using the platform of the Bioscreen C instrument. […] OD600 values were recorded automatically at specified times, and the means of the triplicate cultures were plotted.

P. aeruginosa ATCC 27853 = assay: MIC (broth microdilution) and growth curves of antibiotics in combination with 9c or 9d; format: cell-based, Pseudomonas aeruginosa; conditions: for time of growth inhibition in combination with nalidixic acid: 50 μM of compound + 2.15 μM nalidixic acid, growth curves; for MIC: Pseudomonas aeruginosa, ATCC27853, read-out: MIC of nalidixic acid in the presence of compound; for P. aeruginosa ATCC 27853 growth in combination with antibiotics: with nalidixic acid or rifampicin
Procedure: as §2
Minimum inhibitory concentrations (MICs) for rifampicin and nalidixic acid were determined via the modified broth microdilution method in triplicate according to CLSI guidelines M7-A9 and M100-A30 [43]. The antibiotics were serially diluted twofold in 100 μL of MHB. The bacteria inoculum was 100 μL of a 1.0 × 10^6 CFU/mL dilution in MHB. MICs for antibiotics in the presence of 9c or 9d were determined with the same method.
MIC endpoints were read after 24 h of incubation with an iMark microplate absorbance reader (Bio-Rad, Hercules, CA, USA). Growth curves of P. aeruginosa ATCC 27853 in the presence of rifampicin/nalidixic acid and 9c/9d were obtained using a multifunction microplate reader, SuperMax 3100 (ShanghaiFlash, Shanghai, China). Cells were grown in triplicate at 37 °C with aeration.

HEK293 cell line = assay: Cytotoxicity assay (Alamar Blue); format: cell-based; conditions: HEK293 cells, 72 h exposure, mean ± SD, at least 3 independent experiments
Procedure: as §1

E. coli LpxC = conditions: cited from earlier work

Structure (SMILES)	CC50 at 72 h [1] [µM]	Activity (E. coli MG1655)	potentiation of kanamycin (sensitivity of cells) (E. coli MG1655)	potentiating activity with nalidixic acid (growth inhibition) (E. coli MG1655)	potentiation of rifampicin (sensitivity of cells) (E. coli MG1655)	bacteriostatic effect in the first 10 h of incubation (E. coli MG1655)	decrease of MIC of rifampicin (P. aeruginosa ATCC 27853; 25 μM of compound)	reduction of MIC of nalidixic acid (P. aeruginosa ATCC 27853; 25 μM of compound)	MIC of rifampicin in the presence of compound (P. aeruginosa ATCC 27853; 50 μM of compound) [µM]	reduction of MIC of nalidixic acid (P. aeruginosa ATCC 27853; 50 μM of compound)	reduction of MIC of rifampicin (P. aeruginosa ATCC 27853; 50 μM of compound) [times]	time of growth inhibition in combination with nalidixic acid (P. aeruginosa ATCC 27853) [h]	MIC of rifampicin in the presence of compound (P. aeruginosa ATCC 27853; 100 μM of compound) [µM]	decrease of MIC of nalidixic acid (P. aeruginosa ATCC 27853; 100 μM of compound)	reduction of MIC of rifampicin (P. aeruginosa ATCC 27853; 100 μM of compound) [times]	MIC (P. aeruginosa ATCC 27853; 100 μM of compound) [µM]	P. aeruginosa ATCC 27853 growth in combination with antibiotics (P. aeruginosa ATCC 27853)	melting point	CC50 (HEK293) (HEK293 cell line)	inhibition of E. coli LpxC (E. coli LpxC)
O=C(Cc1nc(-c2cc(F)c(F)c(F)c2)no1)NO [Compound 9c]	189 ± 29.5	1	greatest effectiveness; also recorded: greatest potentiating activity	greatest potentiating activity	greatest effectiveness; also recorded: greatest potentiating activity	powerful bacteriostatic effect	twofold	two times	0.08	four times	64	≤ 14	0.08	approximately eight-fold	64	2.15	significantly reduced; also recorded: best results	159.2 °C (dec.)		
Cc1cccc(-c2noc(CC(=O)NO)n2)c1 [Compound 9d]	176 ± 17.8	1	greatest potentiating activity	greatest potentiating activity	greatest potentiating activity	powerful bacteriostatic effect	inactive	ineffective	0.08	four times	64	≤ 8	0.08	approximately eight-fold	64	2.15	significantly reduced; also recorded: best results	165.4 °C (dec.)		
Cn1c(-c2nnc(C(=O)NO)o2)cc2ccccc21 [Compound 36]	132 ± 23.7	1	completely ineffective	inhibited bacterial growth less effectively; also recorded: weak potentiating activity	completely ineffective													198 °C (dec.)	increased toxicity	
CCCc1cc(C2=N[C@@H](C(=O)NO)CO2)cc(OC)c1OC [L-161,240]																				potent inhibitors
